Test system: 876862-298-R-J1-PDC complex spheroids, viability % test/control
Test: Anticancer human tumor 876862-298-R-J1-PDC patient-derived endometrial carcinoma cell line growth inhibition [CLK]
Conditions: for IC50: curve of first compound; for viability, T/C: stronger effect = lower value
From the text: A high-throughput screen of multi-cell type tumor spheroids was designed to identify active combinations of […] and targeted small molecules. Complex spheroids include a stromal component modeled by human endothelial cells (HUVEC) and fibroblasts modeled by human mesenchymal stem cells (MSCs). The concentration ranges selected for each drug and investigational agent were based upon clinically achievable concentrations if the clinical Cmax of the agent was known.
Compounds. The drugs and investigational agents: cirtuvivint (SM08502; NSC835563), CC-671 (NSC850746), vemurafenib (NSC761431), tapotoclax (NSC804041), sotorasib (NSC818433), adagrasib (NSC831453), MRTX-1133 (NSC836407), BAY2416964 (NSC825713), copanlisib (NSC816437), inavolisib (NSC800729), abemaciclib (NSC768073), osimertinib (NSC779217), entinostat (NSC756642), eltanexor (KPT-8602, NSC794443), venetoclax (NSC766270), ceralasertib (NSC777638), bortezomib (NSC756655), olaparib (NSC753686), talazoparib (NSC767125), alisertib (NSC759677), peposertib (NSC802822), gemcitabine (NSC613327), 5-fluorouracil (NSC19893), SN-38 (NSC673596), oxaliplatin (NSC266046), paclitaxel (NSC125973), and doxorubicin (NSC123127), were obtained from the National Cancer Institute (NCI) Developmental Therapeutics Program Chemical Repository. The FDA-approved anticancer drug set is available from the Developmental Therapeutics Program at https://dtp.cancer.gov/organization/dscb/obtaining/available plates.htm. […] The stock solutions were prepared in dimethyl sulfoxide (DMSO, Sigma-Aldrich, St. Louis, MO, cat. D2650), except for the platinum complexes which were prepared in saline (Quality Biological, Gaithersburg, MD, cat. 114-055-101), at 800-fold the tested concentration and stored at -70 degrees C prior to their use. All drugs and investigational agents were tested over a range starting from a high concentration at or near the clinical Cmax and decreasing in half-log increments. If the clinical Cmax for an agent had not been determined, the highest concentration tested was 10 microM.
Cell Culture. All cells were maintained in an incubator at 37 degrees C and 5% CO2 with 95% humidity. The PDC lines were cultured according to standard operating procedures established by the NCI PDMR. Briefly, all PDCs were thawed and cultured in Matrigel-coated flasks prepared with a working solution of 1X Ham's F-12 nutrient mix, without supplementation (Invitrogen, Waltham, MA, cat. 11765054), 100 U/mL penicillin-streptomycin (Invitrogen, cat. 15140122), and 2.5% Matrigel (Corning Inc., Corning, NY, cat. 354248) for the first three passages. The 947758-054-R-J2-PDC line was cultured in 6B/Colon 1A media, which includes advanced DMEM/F-12 (Thermo Fisher Scientific, cat. 12634028), 10 mM HEPES (Thermo Fisher Scientific, cat. 15630080), 1X GlutaMAX supplement (Thermo Fisher Scientific, cat. 35050061), 0.1 mg/mL primocin (InvivoGen, cat. ant-pm-2), 10% defined fetal bovine serum, heat inactivated (HyClone Laboratories Inc., cat. SH30070.03HI), 1.25 mM N-Acetyl-L-cysteine (Sigma-Aldrich, cat. A9165), 10 mM nicotinamide (Sigma-Aldrich, cat. N0636), 1X B-27 supplement (Thermo Fisher Scientific, cat. 17504044), 1X N-2 supplement (Thermo Fisher Scientific, cat. 17502048), and 10 microM Y-27632 dihydrochloride (Tocris Bioscience, cat. 1254). The 876862-298-R-J1-PDC was cultured in 6E media, which includes all 6B/Colon 1A media components plus 50% L-WRN conditioned media (ATCC, cat. CRL-3276), 50 ng/mL recombinant human EGF recombinant protein (hEGF; Thermo Fisher Scientific, cat. PHG0311), 10 ng/mL recombinant human fibroblast growth factor 10 (hGFG-10; PeproTech, cat. 100-26), 1 ng/mL recombinant human fibroblast growth factor 2 (hFGF-2; PeproTech, cat. 100-18B), and 1 µM prostaglandin E2 (PGE2; Tocris, cat. 2296). The 227483-062-R1-J1-PDC line was cultured in Panc media, containing all 6E components except hFGF-2, with the addition of 500 nM SB-431542 (Selleckchem, cat. S1067) and 10 nM gastrin (Tocris, cat. 3006). […]

[1] = second compound 0.0316 µM, first compound 0.0316 µM
[2] = second compound 0.0316 µM, first compound 0.1 µM
[3] = second compound 0.0316 µM, first compound 0.316 µM
[4] = second compound 0.0316 µM, first compound 1 µM
[5] = second compound 0.0316 µM, first compound 3.16 µM
[6] = second compound 0.0316 µM, first compound 10 µM
[7] = second compound 0.1 µM, first compound 0.0316 µM
[8] = second compound 0.1 µM, first compound 0.1 µM
[9] = second compound 0.1 µM, first compound 0.316 µM
[10] = second compound 0.1 µM, first compound 1 µM
[11] = second compound 0.1 µM, first compound 3.16 µM
[12] = second compound 0.1 µM, first compound 10 µM
[13] = second compound 0.316 µM, first compound 0.0316 µM
[14] = second compound 0.316 µM, first compound 0.1 µM
[15] = second compound 0.316 µM, first compound 0.316 µM
[16] = second compound 0.316 µM, first compound 1 µM
[17] = second compound 0.316 µM, first compound 3.16 µM
[18] = second compound 0.316 µM, first compound 10 µM
[19] = second compound 1 µM, first compound 0.0316 µM
[20] = second compound 1 µM, first compound 0.1 µM
[21] = second compound 1 µM, first compound 0.316 µM
[22] = second compound 1 µM, first compound 1 µM
[23] = second compound 1 µM, first compound 3.16 µM
[24] = second compound 1 µM, first compound 10 µM
[25] = second compound 3.16 µM, first compound 0.0316 µM
[26] = second compound 3.16 µM, first compound 0.1 µM
[27] = second compound 3.16 µM, first compound 0.316 µM
[28] = second compound 3.16 µM, first compound 1 µM
[29] = second compound 3.16 µM, first compound 3.16 µM
[30] = second compound 3.16 µM, first compound 10 µM
[31] = second compound 10 µM, first compound 0.0316 µM
[32] = second compound 10 µM, first compound 0.1 µM
[33] = second compound 10 µM, first compound 0.316 µM
[34] = second compound 10 µM, first compound 1 µM
[35] = second compound 10 µM, first compound 3.16 µM
[36] = second compound 10 µM, first compound 10 µM
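Also: spheroids exposed to drugs for 7 days before readout.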
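For viability, T/C in this document: 100% = DMSO vehicle control wells.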

Which IC50 (second compound 0.0316 µM) does the source give for `CCCS(=O)(=O)Nc1ccc(F)c(C(=O)c2c[nH]c3ncc(-c4ccc(Cl)cc4)cc23)c1F` + CN1CCN(c2cc(C(=O)Nc3cc4cc(-c5cnn(C)c5)ccc4cn3)ccn2)CC1 here?
Its IC50 is 6760 nM.

And the IC50 (second compound 0.1 µM)?
The IC50 was 974 nM.

What about the IC50 (second compound 0.316 µM) of the same compound?
Its IC50 is under 31.6 nM.

And the IC50 (second compound 1 µM)?
Its IC50 is under 31.6 nM.

And the IC50 (second compound 3.16 µM)?
Its IC50 is under 31.6 nM.

What about the IC50 (second compound 10 µM) of the same compound?
Its IC50 is under 31.6 nM.

What about the viability, T/C [1] of the same compound?
Its viability, T/C is 103%.

What about the viability, T/C [2] of the same compound?
The viability, T/C was 93.4%.

What about the viability, T/C [3] of the same compound?
The viability, T/C was 89.2%.

What about the viability, T/C [4] of the same compound?
Its viability, T/C is 101%.

What about the viability, T/C [5] of the same compound?
Its viability, T/C is 77.1%.

What about the viability, T/C [6] of the same compound?
The viability, T/C was 36.1%.

And the viability, T/C [7]?
The viability, T/C was 63.4%.

And the viability, T/C [8]?
The viability, T/C was 51.6%.

And the viability, T/C [9]?
Its viability, T/C is 53.1%.

What about the viability, T/C [10] of the same compound?
The viability, T/C was 50.7%.

And the viability, T/C [11]?
The viability, T/C was 42.2%.

What about the viability, T/C [12] of the same compound?
The viability, T/C was 22.5%.

What about the viability, T/C [13] of the same compound?
Its viability, T/C is 4.72%.

What about the viability, T/C [14] of the same compound?
The viability, T/C was 3.82%.

What about the viability, T/C [15] of the same compound?
Its viability, T/C is 5.6%.

What about the viability, T/C [16] of the same compound?
Its viability, T/C is 5.09%.

And the viability, T/C [17]?
Its viability, T/C is 5.93%.

And the viability, T/C [18]?
The viability, T/C was 3.83%.

And the viability, T/C [19]?
Its viability, T/C is 0.82%.

What about the viability, T/C [20] of the same compound?
Its viability, T/C is 1.88%.

And the viability, T/C [21]?
The viability, T/C was 1.54%.

And the viability, T/C [22]?
Its viability, T/C is 2.17%.

And the viability, T/C [23]?
Its viability, T/C is 3.28%.

What about the viability, T/C [24] of the same compound?
The viability, T/C was 1.25%.

And the viability, T/C [25]?
Its viability, T/C is 1.32%.

What about the viability, T/C [26] of the same compound?
The viability, T/C was 2.22%.

What about the viability, T/C [27] of the same compound?
The viability, T/C was 9.57%.

What about the viability, T/C [28] of the same compound?
The viability, T/C was 1.58%.

What about the viability, T/C [29] of the same compound?
The viability, T/C was 2.88%.

And the viability, T/C [30]?
The viability, T/C was 2.88%.

And the viability, T/C [31]?
Its viability, T/C is 1.06%.

What about the viability, T/C [32] of the same compound?
Its viability, T/C is 1.12%.

And the viability, T/C [33]?
Its viability, T/C is 1.23%.

And the viability, T/C [34]?
Its viability, T/C is 10.9%.

And the viability, T/C [35]?
The viability, T/C was 7.9%.

What about the viability, T/C [36] of the same compound?
The viability, T/C was 2.22%.

Which results are given for `COC1C=CCC(C)C(C)S(=O)(=O)NC(=O)c2ccc3c(c2)N(CC2CCC21)CC1(CCCc2cc(Cl)ccc21)CO3` (centres undefined) + CN1CCN(c2cc(C(=O)Nc3cc4cc(-c5cnn(C)c5)ccc4cn3)ccn2)CC1?
IC50 (second compound 0.0316 µM): 7390 nM; IC50 (second compound 0.1 µM): 212 nM; IC50 (second compound 0.316 µM): < 31.6 nM; IC50 (second compound 1 µM): < 31.6 nM; IC50 (second compound 3.16 µM): < 31.6 nM; IC50 (second compound 10 µM): < 31.6 nM; viability, T/C [1]: 93.9%; viability, T/C [2]: 96.6%; viability, T/C [3]: 97.6%; viability, T/C [4]: 96.3%; viability, T/C [5]: 96.7%; viability, T/C [6]: 33.5%; viability, T/C [7]: 56.9%; viability, T/C [8]: 51.1%; viability, T/C [9]: 47.6%; viability, T/C [10]: 39%; viability, T/C [11]: 38.6%; viability, T/C [12]: 18.8%; viability, T/C [13]: 4.28%; viability, T/C [14]: 3.17%; viability, T/C [15]: 2.26%; viability, T/C [16]: 1.91%; viability, T/C [17]: 1.34%; viability, T/C [18]: 0.56%; viability, T/C [19]: 0.93%; viability, T/C [20]: 0.64%; viability, T/C [21]: 25.5%; viability, T/C [22]: 0.78%; viability, T/C [23]: 25.2%; viability, T/C [24]: 2.2%; viability, T/C [25]: 1.34%; viability, T/C [26]: 1.14%; viability, T/C [27]: 1.59%; viability, T/C [28]: 1.26%; viability, T/C [29]: 1.14%; viability, T/C [30]: 0.26%; viability, T/C [31]: 1.69%; viability, T/C [32]: 1.52%; viability, T/C [33]: 2.33%; viability, T/C [34]: 26.3%; viability, T/C [35]: 1.84%; viability, T/C [36]: 1.78%
